Experimental data reported in patent US8653110B2, “Active compound combination comprising azadirachtin and a substituted enaminocarbonyl compound” (Bayer CropScience AG, priority 2010, dated 2014).

Key:
Type in all cases: in vivo
Spodoptera exigua = Spodoptera exigua caterpillars on carnations, feeding damage (Example 1)
Experimental: Example 1 describes the effect of the combination according to the invention on caterpillars of the owlet moth (Spodoptera exigua) on carnations (Dianthus caryophyllus). Azadirachtin was employed as NeemAzal® from Trifolio GmbH. The test was carried out according to EPPO guidelines PP 1/152 (2), PP 1/181 (3), PP 1/135 (3) and PP 1/210 (1) with 4 repetitions of in each case 10 plants. At the start of the infection, the plants were treated as follows: • 1. untreated • 2. compound (I-1) as SL 200 (17% strength), 150 g of active compound/ha • 3. azadirachtin 30 g of active compound/ha • 4. compound (I-1) as SL 200+azadirachtin, 150+30 g of active compound/ha • 5. positive control: imidacloprid 100 g of active compound/ha
The spray solution was prepared by mixing commercial formulations and using water to adjust to the concentration mentioned. The application rate was 1000 l/ha. 3 Applications were carried out at intervals of 10-14 days. The feeding damage caused by the caterpillars on the carnation leaves was scored at weekly intervals.

[1] = test system: Trialeurodes vaporariorum; assay: Whiteflies on tomatoes (Example 5); settings: (I-1) 50, azadirachtin 30, (I-1)+azadirachtin 50+30, imidacloprid 100 g/ha
Experimental: Example 5 describes the effect of the combination according to the invention against whiteflies (Trialeurodes vaporariorum) on tomatoes (Lycopersicon esculentum). The test was carried out under GEP according to EPPO guideline PP 1/36(2) with 3 repetitions of in each case 4 plants. At the start of the infection, the plants were treated as follows: • 1. untreated • 2. compound (I-1) as SL 200 (compound according to formula (I-1), 17% strength), 50 g of active compound/ha • 3. azadirachtin 30 g of active compound/ha, NeemAzal® • 4. azadirachtin 15 g of active compound/ha, NeemAzal® • 5. azadirachtin 5 g of active compound/ha, NeemAzal® • 6. compound (I-1) as SL 200+azadirachtin, 50+30 g of active compound/ha • 7. compound (I-1) as SL 200+azadirachtin, 50+15 g of active compound/ha • 8. compound (I-1) as SL 200+azadirachtin, 50+5 g of active compound/ha • 9. positive control imidacloprid 100 g of active compound/ha
The spray solution was prepared by mixing commercial formulations and using water to adjust to the concentration mentioned. The application rate was 1000 l/ha. 2 applications were carried out at intervals of 14 days. The number of adult flies and the number of larvae were scored on days 2 to 21 after the first application. What is shown is the effect of the products, which becomes evident in a reduction of the number of insects or larvae compared to the untreated control. Imidacloprid was also tested, as positive control.

Spodoptera frugiperda = assay: Fall armyworm caterpillars on maize, feeding damage (Example 8); settings: reduction of feeding damage, (I-1) 50, azadirachtin 30, (I-1)+azadirachtin 50+30, imidacloprid 100 g/ha
Phyllotreta nigripes = assay: Turnip flea beetle on cabbage (Example 10); settings: (I-1) 150, azadirachtin 30, (I-1)+azadirachtin 150+30, imidacloprid 100 g/ha
Experimental: Example 10 describes the effect of the combination according to the invention on caterpillars of the turnip flea beetle Phyllotreta nigripes on cabbage. The test was carried out according to EPPO guidelines PP 1/210(1), PP 1/152 (2), PP 1/181 (3) and PP 1/135 with 4 repetitions of in each case 10 plants. The plants were treated as follows: • 1. untreated • 2. compound (I-1) as SL 200 (compound according to formula (I-1), 17% strength), 150 g of active compound/ha • 3. azadirachtin 30 g of active compound/ha, NeemAzal® • 4. compound (I-1) as SL 200+azadirachtin, 150+30 g of active compound/ha • 5. positive control imidacloprid 100 g of active compound/ha
(§1) The spray solution was prepared by mixing commercial formulations and using water to adjust to the concentration mentioned. The application rate was 1000 l/ha. 2 applications were carried out at intervals of 14 days. The number of live caterpillars on days 7 to 32 after the first application was scored. What is shown is the effect of the products, which becomes evident in a reduction of the number of caterpillars compared to the untreated control.

Tetranychus urticae = assay: Greenhouse red spider mite on roses (Example 7); settings: (I-1) 50, azadirachtin 30, (I-1)+azadirachtin 50+30, imidacloprid 100 g/ha
Experimental: Example 7 describes the effect of the combination according to the invention on the greenhouse red spider mite (Tetranychus urticae) on roses. The test was carried out in a greenhouse under GEP according to EPPO guideline PP 1/168(2) with 4 repetitions of in each case 4 plants. At the start of the infection, the plants were treated as follows: • 1. untreated • 2. compound (I-1) as SL 200 (compound according to formula (I-1), 17% strength), 50 g of active compound/ha • 3. azadirachtin 30 g of active compound/ha, NeemAzal® • 4. azadirachtin 5 g of active compound/ha, NeemAzal® • 5. compound (I-1) as SL 200+azadirachtin, 50+30 g of active compound/ha • 6. compound (I-1) as SL 200+azadirachtin, 50+5 g of active compound/ha • 7. positive control imidacloprid 100 g of active compound/ha
as §1, with “spider mites” for “live caterpillars”, “2” for “7”, “spider mites” for “caterpillars”

Compound: O=[N+]([O-])NC1=NCCN1Cc1ccc(Cl)nc1 [imidacloprid]
- Day 7 reduction of feeding damage in % (Spodoptera exigua; Day 7, (I-1) 150, azadirachtin 30, (I-1)+azadirachtin 150+30, imidacloprid 100 g of active compound/ha): 0%
- Day 25 reduction of feeding damage in % (Spodoptera exigua; Day 25, (I-1) 150, azadirachtin 30, (I-1)+azadirachtin 150+30, imidacloprid 100 g of active compound/ha): 100%
- Day 32 reduction of feeding damage in % (Spodoptera exigua; Day 32, (I-1) 150, azadirachtin 30, (I-1)+azadirachtin 150+30, imidacloprid 100 g of active compound/ha): 97%
- Day 40 reduction of feeding damage in % (Spodoptera exigua; Day 40, (I-1) 150, azadirachtin 30, (I-1)+azadirachtin 150+30, imidacloprid 100 g of active compound/ha): 100%
- Activity against adults [%] ([1]; Day 2): 51%
- Activity against larvae [%] ([1]; Day 2): 0%
- Activity against adults [%] ([1]; Day 7): 89%
- Activity against larvae [%] ([1]; Day 7): 60%
- Activity against adults [%] ([1]; Day 14): 68%
- Activity against larvae [%] ([1]; Day 14): 50%
- Activity against adults [%] ([1]; Day 21): 65%
- Activity against larvae [%] ([1]; Day 21): 52%
- Activity against Spodoptera frugiperda [%] (Spodoptera frugiperda; Day 7): 24%
- Activity against Spodoptera frugiperda [%] (Spodoptera frugiperda; Day 14): 57%
- Activity against Spodoptera frugiperda [%] (Spodoptera frugiperda; Day 21): 14%
- Activity against Spodoptera frugiperda [%] (Spodoptera frugiperda; Days 28-32): 12%
- Activity against Spodoptera frugiperda [%] (Spodoptera frugiperda; Days 35-42): 10%
- Activity against Phyllotreta nigripes [%] (Phyllotreta nigripes; Day 7): 52%
- Activity against Phyllotreta nigripes [%] (Phyllotreta nigripes; Days 14-16): 51%
- Activity against Phyllotreta nigripes [%] (Phyllotreta nigripes; Days 21-25): 49%
- Activity against Phyllotreta nigripes [%] (Phyllotreta nigripes; Days 28-32): 43%
- Activity against Tetranychus urticae [%] (Tetranychus urticae; Day 2): 20%
- Activity against Tetranychus urticae [%] (Tetranychus urticae; Day 7): 16%
- Activity against Tetranychus urticae [%] (Tetranychus urticae; Day 14): 11%
- Activity against Tetranychus urticae [%] (Tetranychus urticae; Day 21): 27%
- Activity against Tetranychus urticae [%] (Tetranychus urticae; Days 28-32): 46%
